Assay results published in US9809597B2, “Ganciclovir derivatives for modulating innate and adaptive immunity and for use in immunotherapy” (The Board of Trustees of the Leland Stanford Junior …, priority 2015, dated 2017).
pEC50: −log10 of the molar value.

Experiments:
[1] = test system: wildtype and STING^gt/gt mice with EAE; test: EAE induction and analysis; assay type: in vivo, mouse
BV-2 microglia [2] = test: Cell viability (cell confluence, automated microscope); assay type: cell-based, mouse; conditions: GCV dose response
Experimental: (§1) BV-2 mouse microglia cells were grown in DMEM+10% FBS and THP-1 human monocyte cells were grown in RPMI-40+10% FBS+0.05 mM β-mercaptoethanol at 37° C., 5% CO2. Adherent cells were split using 1×TrypLE (Gibco). For cellular assays, cells were treated with the following concentrations of drugs as indicated in the DMEM without serum: 100-200 μM ganciclovir, 10 ng/ml IFNγ (R&D systems), 100 ng/ml LPS (Sigma-Aldrich), 1-10 μM Fludarabine (Selleckchem), 1 μM Ruxolitinib (Selleckchem), 1 μM TG-101348 (Selleckchem), 1 μM Amlexanox (Tocris bioscience) unless otherwise noted. All experiments were run in triplicates and replicated at least 3 times with cell lines and at least twice with primary microglia. Average data are shown for cell lines and representative data are shown for primary cells. Secreted signaling proteins were measured in supernatants from cultured cells stimulated with GCV and conditioned for 24 hours in the absence of serum using two independent Luminex arrays (Human Immune Monitoring Center, Stanford and Eve technologies, Canada). Nitrite assay was performed on conditioned culture supernatants of cells stimulated with drugs for 24 hours using the Griess Reagent System (Promega) according to manufacturer's instructions. To assess cellular viability, cell confluence was measured using an automated microscope (Cellavista; Roche).

BV-2 microglia [3] = test: Secreted factors analyzed by Luminex array in BV-2 supernatants; assay type: cell-based, mouse
Experimental: as §1

[4] = test system: THP-1 human monocyte cells; test: RT-PCR for CXCL10 in THP-1 cells; assay type: cell-based; conditions: 200 μM, 8-24 hours
Experimental: as §1, with “Roche). […]” for “Roche).”

[5] = test system: wildtype and STING^gt/gt mice with EAE; conditions: mouse model for multiple sclerosis, therapeutic doses equivalent to those in humans (Ding et al. 2014); cited from earlier work
BV-2 microglia [6] = test: siRNA knockdown (STING, IRF3, Stat1, Jak2), then RT-PCR for CXCL10; assay type: cell-based, mouse
Experimental: Smartpool siRNAs against mouse targets were bought from Dharmacon and transfected in microglia cells using Viromer Blue from Lipocalyx at a concentration of 50 nM according to manufacturer's instructions. Drugs were added cells after 24 hours of transfection and assays done 24 hours after addition of drugs.
(§2) RNA was isolated from cells using RNeasy mini kit from Qiagen. DNased RNA was converted to cDNA using SuperScript III reverse transcriptase kit (Life technologies). The cDNA was used to quantify specific targets using SYBR green in Roche Lightcycler 480. ΔΔCt values normalized against the experimental control to determine fold change in mRNA for each sample compared to untreated or vehicle treated control. β-actin or Ubc or both were used as housekeeping genes. Primer sequences were obtained from PrimerBank. Fold change is shown compared to the vehicle treated or untreated cells, unless otherwise noted.

primary microglia = test: RT-PCR for CXCL10 and IFNβ transcripts in primary microglia (wildtype, tk KO, STING^gt/gt); assay type: cell-based, mouse; conditions: 200 μM, 6 hours
Experimental: Mice were housed and bred according to the Institutional Animal Care and Use Committee guidelines. Primary microglia and astrocytes were isolated from P0-P3 C57BL/6 mouse pups. Cortices from pups were isolated, meninges removed and tissue was dissociated using a 25-gauge needle. Two cortices were plated on each poly-L-lysine coated T-75 flasks in DMEM/F12+10% FBS+1% penicillin/streptomycin. Microglia and astrocyte co-cultures were maintained for 3 weeks, after which microglia were isolated using CD11b magnetic beads (Miltenyi Biotec) according to the manufacturer's instructions. Isolated microglia were allowed to recover for 1-2 days and processed for cellular assays described above.
For tk KO experiments only, microglia were isolated from adult mouse brains using the neural dissociation kit (Miltenyi Biotec) according to manufacturer's protocol followed by CD11b magnetic bead enrichment. Isolated cells were cultured for 3-4 days before the experiment.
as §2

BV-2 cells = test: RT-PCR for CXCL10 and IFNβ transcripts in BV-2 cells; assay type: cell-based, mouse
Experimental: as §1, §2

[7] = test system: IFNγ/LPS stimulated BV-2 microglia; test: Nitrite assay (Griess) on culture supernatants; assay type: cell-based, mouse; conditions: 24 hours
Experimental: as §1

[8] = STING^gt/gt mice with EAE, day 18
[9] = STING^gt/gt mice, 18 days following disease induction
[10] = cerebella of wildtype mice with EAE, day 18
[11] = BV-2 culture supernatants, no exogenous stimulation, 24 hours GCV
[12] = BV-2 microglia, siRNA 24 hours, then 200 μM for 24 hours
[13] = adult tk1 knockout primary microglia
[14] = primary microglia lacking functional STING

## Nc1nc(O)c2ncn(COC(CO)CO)c2n1 [GCV, Ganciclovir]
[1]; [8]
  overall Iba1 immunoreactivity: trend towards reducing
  overall cell proliferation: no reduction
  proliferating T-cells: no reduction
  proliferating microglia: no reduction
[1]; [9]
  disease severity and incidence compared to untreated mice: not significantly different
  lethality compared to untreated mice: even higher
[1]; STING^gt/gt mice, GCV 100 mg/kg daily
  effect on EAE in mice lacking STING: only partially ameliorated EAE during the early phase of disease
[1]; [10]
  CD3+BrDU+ proliferating T-cells: did not change
  Iba1+BrDU+ proliferating microglia: significantly decreased
  numbers of BrDU+ proliferating cells: significantly decreased
  numbers of Iba1+ microglia: significantly decreased
[1]; wildtype mice, 18 days following disease induction, untreated 20%
  lethality: 0%
[1]; wildtype mice, 18 days following disease induction, untreated 100%
  disease incidence: 40%
[1]; wildtype mice, GCV 100 mg/kg intra-peritoneally daily from day 3
  disease severity (EAE score): drastically reduces disease severity
BV-2 microglia [2]
  toxicity (cell viability): without causing any toxicity
BV-2 microglia [3]; 100 μM GCV, 24 hours
  CCL2: 28.8 ± 1.08 pg/mL
  IL12p70: 0.34 ± 0.05 pg/mL
  IL17A: 3.5 ± 0.12 pg/mL
  MCSF: 23.76 ± 3.77 pg/mL
  MIP1β: 537.14 ± 449.94 ng/mL
  MIP2: 14.77 ± 1.50 pg/mL
  TGFβ: 6.04 ± 0.58 pg/mL
  VEGF: 1.65 ± 0.51 pg/mL
BV-2 microglia [3]; 200 μM GCV, 24 hours
  CCL2: 28.25 ± 2.19 pg/mL
  IL12p70: 0.16 ± 0.11 pg/mL
  IL17A: 2.54 ± 1.28 pg/mL
  IL22: 3.09 ± 2.25 pg/mL
  MCSF: 25.48 ± 8.28 pg/mL
  MIP1β: 4.13 ± 3.36 ng/mL
  MIP2: 13.02 ± 4.25 pg/mL
  TGFβ: 5.36 ± 3.30 pg/mL
  VEGF: 1.56 ± 0.27 pg/mL
BV-2 microglia [3]; [11]
  secreted CCL5 protein: significantly increasing
  secreted CXCL10 protein: significantly increasing
  secreted IL-18 protein: decreasing
  secreted IL-22 protein: significantly increasing
  secreted TNFα protein: significantly increasing
[4]
  induction of CXCL10 mRNA in human monocyte cell line: induced
[5]
  disease course and pathology of EAE: ameliorates the disease course and pathology
BV-2 microglia [6]; BV-2 cells (siRNA) or Stat1 knockout primary microglia, 200 μM
  CXCL10 or IFNβ mRNA expression after siRNA knockdown of Stat1 and Jak2 or lack of Stat1: significantly reduced
BV-2 microglia [6]; [12]
  capacity to induce CXCL10 after siRNA knock down of STING: to a lesser extent
  potential to induce CXCL10 mRNA after siRNA knockdown of IRF3: inhibited
Primary microglia; [13]
  CXCL10 mRNA in microglia from tk1 knockout mice: at levels seen in treated wild type microglia
  IFNβ mRNA in microglia from tk1 knockout mice: at levels seen in treated wild type microglia
Primary microglia; [14]
  induction of CXCL10 mRNA in STING^gt/gt primary microglia: failed to induce
  induction of IFNβ mRNA in STING^gt/gt primary microglia: failed to induce
BV-2 cells; BV-2 cells, 200 μM with anti-IFNβ antibody, 4 hours
  induction of CXCL10 mRNA on neutralization of IFNβ with an antibody: partly reduced
BV-2 cells; Mus musculus, BV-2 microglia, dose response, read-out: EC50, increase of CXCL10 transcript
  pEC50: ~3.80
BV-2 cells; microglia (BV-2, primary), 200 μM
  induction of IFNβ transcript: induced
[7]
  microglial nitric oxide production (nitrite assay): reduction
